According to patent publication US7999119B2, “Compounds having CRTH2 antagonist activity” (Oxagen Limited, priority 2006, dated 2011):
pIC50: −log10 of the molar value. Several values for one entry are separate records, joined by “and”; a condition that tells them apart may be missing. Equal values may be shown once. Read-outs that look alike come from different tables or passages of the source.

What was measured:
[1] = test system: PGD2 induced eosinophil shape change; experiment: Human whole blood eosinophil shape change assay; assay type: cell-based; settings: Homo sapiens, Eosinophil
Description: Human Whole Blood Eosinophil Shape Change Assay
Compounds 1 to 3 were assayed for their effect on PGD2 induced eosinophil shape change and were compared with Comparator Compounds A to G.
Shape Change Assay in Whole Blood
Compounds (1 μl, 200× final concentration) were added directly to 200 μl whole blood, mixed well and incubated for 15 min, 37° C., 5% CO2. After this time, cell shape was fixed by addition of 300 μl Cytofix™ buffer (BD Biosciences), 15 min on ice. 10 ml RBC lysis buffer was added to the fixed cells, incubated 5 min, at room temperature and centrifuged, 300×g for 5 min. Supernatant (containing lysed red cells) was removed and the lysis step was repeated. Leukocytes were resuspended in 250 μl RPMI/10% FCS and shape change analysed by FACS. Eosinophils were gated out based on their autofluorescence and 2000 eosinophil events were counted per sample. Data were analysed in triplicate.

[2] = Pharmacokinetics following oral administration in the rat; assay type: in vivo; settings: 3 mg/kg; for Fold over IC50 at 24 h: mean blood concentration at 24 h (rat, 3 mg/kg p.o.) divided by whole blood IC50 in ng/ml
Description: Investigation of Pharmacokinetics of Compounds of General Formula (I) Following Oral Administration in the Rat
Rats were weighed on the day of dosing.
The test material was prepared as a 0.3 mg/mL suspension in 1% carboxy-methyl-cellulose (CMC).
Three groups of 3 rats were dosed as follows:
Doses were administered as a single oral dose using a gavage tube at a constant dose volume of 10 mL/kg.
At each sampling time point blood samples (approximately 0.3 mL) was taken from a catheter inserted into a lateral tail vein prior to the start of the experiment. The final blood sample (approximately 2 mL) from each animal was taken by cardiac puncture under isoflurane anaesthesia following which the animal was killed by exsanguination. Blood samples were taken into individual heparinised containers. Blood samples were collected at the following times post-dose:
Following collection, the blood samples were centrifuged (approximately 10,000×g, 2 min at 4° C.) and the plasma stored as one aliquot at approximately −20° C. pending analysis of drug concentrations by LC-MS/MS.
The plasma samples were analysed for test material concentrations at BioDynamics using an LC-MS/MS method developed at BioDynamics.

[3] = test system: DK-PGD2-induced blood eosinophilia; experiment: Inhibition of DK-PGD2-induced blood eosinophilia in rats; assay type: in vivo, rat; settings: female rats, oral dosing 30 min before 10 μg DK-PGD2 intracardiac; ED50 from dose-response curve; the values are: ED50
Description: Evaluation of Compounds of General Formula (I) as Inhibitors of 13,14-dihydro-15-keto prostaglandin D2 (DK-PGD2)-Induced Blood Eosinophilia in Rats
The test compound was dissolved in DMSO and diluted with water to give a final dosing volume of 2 ml/kg.
Female rats (175-250 g; UH colony) were dosed orally with test compound (or vehicle).
30 min after dosing all animals were anaesthetised with isoflurane.
Following induction of anaesthesia, animals receive an intracardiac injection of 10 μg DK-PGD2 in 0.3 ml heparinised (10 U/ml) saline. Control animals received an injection of 0.3 ml heparinised saline.
60 min after the intracardiac injection, animals were injected with an overdose of pentobarbitone sodium and a blood sample was taken (into heparin) by cardiac puncture while the rat was anaesthetised but not dead.
An aliquot of blood (100 μl) was added to Turk's solution and the total leukocyte count determined with a haemocytometer.
A further aliquot of blood (500 μl) was mixed with an equal volume of 4% Dextran (mw 500,000) and the erythrocytes allowed to settle. A cytospin preparation was made from the resulting leukocyte rich fraction.
Cytospin preparations were fixed with methanol (5 min) and stained with May-Grunwald (5 min) and Giemsa (15 min) stains. Finally cytospins were washed in phosphate buffer (pH6.8) and air dried.
Differential leukocyte counts were obtained from the cytospin preparations.
Blood eosinophil numbers were determined from the total leukocyte count and the percentage eosinophils (differential count).
Because it was impractical to generate sufficient data in any given experiment, data were obtained over a number of replicate experiments. Data from these replicate experiments were pooled, to provide at least 5 animals in each group and a dose-response curve fitted following a significance test (Mann Whitney) to determine whether or not DK-PGD2 caused a significant increase in blood eosinophils (GraphPad, Prism). A difference between groups was taken to be significant when P<0.05. ED50 values were calculated from the dose-response curve.

[4] = rat, 3 mg/kg p.o, individual male animals

pIC50 ([1]; 10 nm PGD2-induced eosinophil shape change, human whole blood, read-out: Whole Blood IC50): 6.99
pIC50 ([1]; Table 12 summary of whole blood eosinophil shape change IC50, read-out: IC50 (μmol)): 6.99
IC50 ([1]; whole blood eosinophil shape change IC50 converted to ng/mL, read-out: IC50): 0.0358 µg/mL
concentration at 0.25 h ([2]; male, rat, plasma, po, rat, 3 mg/kg oral, 0.25 h, mean, read-out: Concentration in Blood, Mean): 120 ng/mL
concentration at 0.5 h ([2]; male, rat, plasma, po, rat, 3 mg/kg oral, 0.5 h, individual male animals, read-out: Concentration in Blood): 426 ng/mL
concentration at 0.5 h ([2]; male, rat, plasma, po, rat, 3 mg/kg oral, 0.5 h, mean, read-out: Concentration in Blood, Mean): 357 ng/mL
concentration at 1 h ([2]; male, rat, plasma, po, rat, 3 mg/kg oral, 1 h, individual male animals, read-out: Concentration in Blood): 875 ng/mL
concentration at 1 h ([2]; male, rat, plasma, po, rat, 3 mg/kg oral, 1 h, mean, read-out: Concentration in Blood, Mean): 779 ng/mL
concentration at 2 h ([2]; male, rat, plasma, po, rat, 3 mg/kg oral, 2 h, individual male animals, read-out: Concentration in Blood): 1420 ng/mL
concentration at 2 h ([2]; male, rat, plasma, po, rat, 3 mg/kg oral, 2 h, mean, read-out: Concentration in Blood, Mean): 1250 ng/mL
concentration at 4 h ([2]; male, rat, plasma, po, rat, 3 mg/kg oral, 4 h, individual male animals, read-out: Concentration in Blood): 923 ng/mL
concentration at 4 h ([2]; male, rat, plasma, po, rat, 3 mg/kg oral, 4 h, mean, read-out: Concentration in Blood, Mean): 857 ng/mL
concentration at 6 h ([2]; male, rat, plasma, po, rat, 3 mg/kg oral, 6 h, individual male animals, read-out: Concentration in Blood): 404 ng/mL
concentration at 6 h ([2]; male, rat, plasma, po, rat, 3 mg/kg oral, 6 h, mean, read-out: Concentration in Blood, Mean): 451 ng/mL
concentration at 8 h ([2]; male, rat, plasma, po, rat, 3 mg/kg oral, 8 h, mean, read-out: Concentration in Blood, Mean): 354 ng/mL
concentration at 24 h ([2]; male, rat, plasma, po, rat, 3 mg/kg oral, 24 h, mean, read-out: Concentration in Blood, Mean): 43.7 ng/mL
AUC(0-inf) ([2]; male, rat, plasma, po, rat, 3 mg/kg p.o, individual male animals, read-out: AUCinf): 8570 ng·h/mL
Cmax ([2]; male, rat, plasma, po, rat, 3 mg/kg p.o, individual male animals, read-out: Cmax): 1420 ng/mL
Tmax ([2]; male, rat, plasma, po, rat, 3 mg/kg p.o, individual male animals, read-out: Tmax): 2 h
AUC(0-inf) ([2]; male, rat, plasma, po, rat, 3 mg/kg p.o, mean, summary without unit (Table 12), read-out: AUCinf (mean)): 8160 ng·h/mL
Cmax ([2]; male, rat, plasma, po, rat, 3 mg/kg p.o, mean, summary without unit (Table 12), read-out: Cmax (mean)): 1250 ng/mL
AUC(0-inf) ([2]; male, rat, plasma, po, rat, 3 mg/kg p.o, mean, read-out: AUCinf, Mean): 8160 ng·h/mL
Cmax ([2]; male, rat, plasma, po, rat, 3 mg/kg p.o, mean, read-out: Cmax, Mean): 1250 ng/mL
Tmax ([2]; male, rat, plasma, po, rat, 3 mg/kg p.o, mean, read-out: Tmax, Mean): 2 h
half-life ([2]; male, rat, plasma, po, rat, 3 mg/kg p.o, mean, read-out: T½, Mean (converted)): 288 min
Fold over IC50 at 24 h [2]: 1.2
Fold over IC50 at 24 h ([2]; listed as Compound (A)): ca. 1.2
Concentration in Blood ([2]; rat, 3 mg/kg oral, 0.5 h, individual male animals): 388.4 ng/mL and 256.3 ng/mL
Concentration in Blood ([2]; rat, 3 mg/kg oral, 1 h, individual male animals): 923.2 ng/mL and 538.8 ng/mL
Concentration in Blood ([2]; rat, 3 mg/kg oral, 2 h, individual male animals): 1309.0 ng/mL and 1013.6 ng/mL
Concentration in Blood ([2]; rat, 3 mg/kg oral, 4 h, individual male animals): 820.5 ng/mL and 827.0 ng/mL
Concentration in Blood ([2]; rat, 3 mg/kg oral, 6 h, individual male animals): 514.8 ng/mL and 432.6 ng/mL
Concentration in Blood ([2]; rat, 3 mg/kg oral, 24 h, individual male animals): 51.8 ng/mL and 79.2 ng/mL and 0.0 ng/mL
Cmax [2, 4]: 1309.0 ng/mL and 1013.6 ng/mL
T½ [2, 4]: 6.1 hours (2×) and 2.2 hours
Cmax (mean) ([2]; rat, 3 mg/kg p.o, mean, summary without unit (Table 12), in ng/mL): 1246
AUCinf (mean) ([2]; rat, 3 mg/kg p.o, mean, summary without unit (Table 12), in ng·h/mL): 8158
SMILES: Cc1c(Cc2ccc3ccccc3n2)c2cc(F)ccc2n1CC(=O)O [Compound A, (5-Fluoro-2-methyl-3-quinolin-2-ylmethyl-indol-1-yl)-acetic acid, reference compound]
Concentration in Blood ([2]; rat, 3 mg/kg oral, 0.25 h, individual male animals): 139.1 ng/mL and 153.9 ng/mL and 68.3 ng/mL
Concentration in Blood ([2]; rat, 3 mg/kg oral, 8 h, individual male animals): 305.6 ng/mL and 521.9 ng/mL and 235.5 ng/mL
AUCinf [2, 4]: 10429.2 ng·h/mL and 5473.9 ng·h/mL
Potency in inhibition of DK-PGD2-induced blood eosinophilia [3]: 37 mg/kg
